Tested on: CB-1 receptor
Assay: CB-1 receptor binding ([3H]SR141716A displacement)
Conditions: rat or human CB-1 protocol not specified; kind of value (Ki/IC50) not stated
Protocol: Compounds having an activity <20 nM are generally tested in the CB-1 GTPγ [^35S] Binding Assay and the CB-2 binding assay described below in the Biological Binding Assays section. Selected compounds are then tested in vivo using one or more of the functional assays described in the Biological Functional Assays section below. The compounds in the Examples above provided a range of CB-1 receptor binding activities from 0.1 to 500 nM.
The following assays were designed to detect compounds that inhibit the binding of [^3H] SR141716A (selective radiolabeled CB-1 ligand) and [^3H]5-(1,1-dimethylheptyl)-2-[5-hydroxy-2-(3-hydroxypropyl)-cyclohexyl]-phenol; radiolabeled CB-1/CB-2 ligand) to their respective receptors. […]
The test compounds were diluted in drug buffer (0.5% BSA, 10% DMSO and TME) and then 25 μl were added to a deep well polypropylene plate. […] In the morning the filters were counted on a Wallac Betaplate™ counter (available from PerkinElmer Life Sciences™, Boston, Mass.). […]
The test compounds were diluted in drug buffer (0.5% BSA, 10% DMSO and TME) and then 25 μl were added to a deep well polypropylene plate. […] In the morning the filters were counted on a Wallac Betaplate™ counter (available from PerkinElmer Life Sciences™, Boston, Mass.).

Question: `CNC1CCCOc2c1nn(-c1ccccc1Cl)c2-c1ccc(Cl)cc1` (stereo not shown) [Example 1C] was tested. Which “CB-1 receptor binding activity” value did it give?
Answer: 47 nM

From patent US20060241100A1, “Acylaminobicyclic heteroaromatic compounds and uses thereof” (Pfizer Inc, priority 2005, published 2006)
